Earlier results, collected in patent publication US6436991B1, “Composition and method containing products extracted from Commiphora sp. for prevention and treatment of abnormal cell growth and proliferation in inflammation, neoplasia and cardiovascular disease” (Sabinsa Corporation, priority 2000, dated 2002).
pIC50: −log10 of the molar value.

Details: literature values; read-out: IC50, DPPH radical scavenging (reported, Chen and Ho 1995)

| Compound | pIC50 |
| --- | --- |
| O=C(O)c1cc(O)c(O)c(O)c1 [gallic acid] | 4.97 |
| catechin | 4.73 |
